Results on 1 compound are retold here after patent US7531195B2, “Schisandrin B preparation” (priority 2005, dated 2009).

In one assay the test system is H9c2 cells. The assay is described as follows: Menadione-induced toxicity (LDH) in H9c2 cells. The assay is classed as cell-based, rat. On the procedure:
(§1) H9c2 cells, a permanent cell line derived from cardiac myoblasts of rat embryo, have early been characterized as a suitable model of myocardial cells [Hescheler et al. 1991]. H9c2 cells were cultured as monolayers in Dulbecco's modified Eagle's medium (GIBCO BRL) supplemented with 10% (v/v) fetal bovine serum. The medium contained glucose (4.5 g/L) and glutamine (4.5 mM), supplemented with NaHCO3 (17 mM), penicillin (100 IU/ml), and streptomycin (100 μg/ml). Cells were grown under an atmosphere of 5% CO2 in air at 37° C. The medium was replaced by fresh medium every 2 or 3 days. A stock of cells was grown in a 75 cm culture flask and split before confluence at a subcultivation ratio of 1:10. Cells used for experiments were seeded at a density of 3.75×10^4 cells/well on a 12-well culture plate, and the cells were grown for 24 h to about 80% confluence prior to drug treatment.
Cultured H9c2 cells were treated with (−) Schisandrin B, (+) Schisandrin B or (±) Schisandrin B (dissolved in DMSO) at 6.25 μM (0.2% DMSO final concentration) for 16 h. Control cells were given the vehicle (i.e. DMSO) only. Immediately following the drug or vehicle pretreatment, the cells were challenged with menadione (dissolved in ethanol) at 12.5 μM (0.2% ethanol final concentration) for 4 h. The control cells were treated with the medium containing 0.2% ethanol only. After the menadione challenge, the medium was taken for the measurement of LDH activity, an biochemical index of cell injury.

The next assay has as its system Hsp25. The assay is described as follows: Hsp25 expression in H9c2 cells (Western blot). The following applies: 6.25 μM. The format is cell-based, rat. On the procedure: as §1
Cultured H9c2 cells were treated with (−) Schisandrin B, (+) Schisandrin B or (±) Schisandrin B (dissolved in DMSO) at 6.25 μM (0.2% DMSO final concentration) for increasing periods of time. Control cells were given the vehicle (i.e. DMSO) only.
Immediately following the drug treatment, the cells were washed twice with 0.5 ml cold PBS and treated with 100 μl lysis buffer containing 20 mM Tris HCl, 3 mM EGTA, 1% Triton X-100, 10% glycerol and 2 mM dithiothreitol, pH 7.5, with freshly added protease inhibitors (1 mM phenylmethylsulfonyl fluoride, 0.1 mM benzamide, 5 μg/ml leupeptin, 5 μg aproptinin and 5 μg/ml pepstain A). The mixture was incubated at 4° C. for 15 min with constant shaking. Then the cells were scraped off from the plate, and the extract was transferred to a microcentrifuge tube for centrifugation at 2,400 g for 3 min at 4° C. The resultant supernatant was used for Hsp analysis. Hsp25 and Hsp70 levels was estimated by Western blot analysis using specific antibodies (anti-Hsp25, catalog #SPA-801; anti-Hsp70, catalog #SPA-812) from StressGen (Vancouver, BC, Canada) following SDS-PAGE analysis cell lysates, using a separating gel of 10% acrylamide as described in Ip et. al. [2001]. Hsp25/27 and Hsp70 (human recombinant proteins from StressGen) and actin (bovine muscle from Sigma) were used as markers for reference. […] All immuno-blots were analyzed by densitometry, and the amounts (arbitrary units) of Hsp were normalized with reference to actin levels (arbitrary units) in the sample.
On the technique in general: A western blot detects proteins with antibodies after separation by electrophoresis.

For the next assay, the system named is isolated heart. The assay is described as follows: Myocardial I-R injury (LDH leakage) in young adult and middle-aged rats. The format is in vivo, rat. The note with it: 10 mg/kg/day x 35. On the procedure: Young adult (8-10 week-old) and middle-aged (12-14 month-old retired breeder) female Sprague-Dawley rats were maintained under a 12-h dark/light cycle at about 22° C. and allowed food and water ad libitum. Experimental protocols were approved by the Research Practice Committee at the Hong Kong University of Science & Technology, Hong Kong. Animals were randomly divided into groups, with 5 animals in each. In the treatment groups, rats were intragastrically administered with Sch B (dissolved/suspended in olive oil) at a daily dose of 10 mg/kg for 15 days. The daily dose is approximated to 1.14 mg/kg for humans after adjusting the inter-species difference in drug distribution in the body. Untreated control animals received olive oil only. Twenty-four hours after the last dosing, animals were sacrificed by decapitation and the whole brain, heart ventricular, liver and skeletal muscle (hind limb) tissues were excised and subjected to biochemical analysis. To investigate the effect of (−) Sch B on myocardial ischemia-reperfusion […] injury, rats were intragastrically administered with (−) Sch B at a daily dose of 10 mg/kg for 35 days. Untreated control animals received olive oil only. Twenty-four hours after the last dosing, hearts were isolated from pentobarbital-anesthetized animals and subjected to I-R experiment. […]

[1] abbreviates: MENADIONE 12.5 μM for 4 h, drug 6.25 μM for 16 h.

As for `COc1cc2c(c(OC)c1OC)-c1c(cc3c(c1OC)OCO3)CC(C)C(C)C2` (single isomer, unassigned; (-)) [(−) Sch B, (−) Schisandrin B], the LDH in the assay on H9c2 cells (setting [1]) is reported as 20.6 ± 0.18 U/ml; with H9c2 cells (NON-MENADIONE, 6.25 μM for 16 h), 14.3 ± 0.29 U/ml. Moreover, the “LDH, percent protection vs menadione control” value with H9c2 cells (setting [1]) is reported as “(60%)”. Also, the “Hsp 25 Level” value in the assay with Hsp25 (0 h post-dosing (unpretreated control)) is given as 1722 ± 99 AU; with Hsp25 (8 h post-dosing), 1386 ± 50 AU; in the assay with Hsp25 (16 h post-dosing), 1432 ± 83 AU; with Hsp25 (24 h post-dosing), 1956 ± 113 AU; in the assay on Hsp25 (48 h post-dosing) it was 1878 ± 108 AU. For the same compound, the “Hsp 25 Level, percent increase vs unpretreated control (0 h)” value in the assay with Hsp25 (24 h post-dosing) is on record as “(14%)”. Also, in the assay with Hsp25 (post-dosing), the “time of maximum stimulation of Hsp25 level” value came to 24 h. The “degree of protection against myocardial I-R injury” value in the assay with isolated heart (middle-aged rats) is on record as 36%; in the assay with isolated heart (young adult rats) it was 55%.
